Results: ChEMBL document CHEMBL4422610, “HDAC as onco target: Reviewing the synthetic approaches with SAR study of their inhibitors” (Eur J Med Chem, 2018)

Tests used:
[1] = target: T1, Histone deacetylase 11 (Homo sapiens, UniProt Q96DB2); assay: Inhibition of human HDAC11 using fluorogenic HDAC substrate
T1 sequence (Q96DB2 whole entry): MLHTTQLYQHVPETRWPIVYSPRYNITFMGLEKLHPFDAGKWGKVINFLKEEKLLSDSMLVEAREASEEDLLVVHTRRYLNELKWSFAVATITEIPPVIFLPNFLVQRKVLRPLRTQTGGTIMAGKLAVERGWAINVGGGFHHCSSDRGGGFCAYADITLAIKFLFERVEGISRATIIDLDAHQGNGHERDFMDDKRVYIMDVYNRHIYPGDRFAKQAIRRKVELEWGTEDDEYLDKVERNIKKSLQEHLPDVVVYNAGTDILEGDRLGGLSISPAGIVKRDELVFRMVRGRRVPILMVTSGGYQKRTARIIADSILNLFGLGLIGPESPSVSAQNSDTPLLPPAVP

[2] = target: Histone deacetylase 5 (Homo sapiens, UniProt Q9UQL6); assay: Inhibition of human HDAC5 using fluorogenic HDAC substrate
[3] = target: Histone deacetylase 9 (Homo sapiens, UniProt Q9UKV0); assay: Inhibition of human HDAC9 using fluorogenic HDAC substrate
[4] = target: T2, Polyamine deacetylase HDAC10 (Homo sapiens, UniProt Q969S8); assay: Inhibition of human HDAC10 using fluorogenic HDAC substrate
T2 sequence (Q969S8 whole entry): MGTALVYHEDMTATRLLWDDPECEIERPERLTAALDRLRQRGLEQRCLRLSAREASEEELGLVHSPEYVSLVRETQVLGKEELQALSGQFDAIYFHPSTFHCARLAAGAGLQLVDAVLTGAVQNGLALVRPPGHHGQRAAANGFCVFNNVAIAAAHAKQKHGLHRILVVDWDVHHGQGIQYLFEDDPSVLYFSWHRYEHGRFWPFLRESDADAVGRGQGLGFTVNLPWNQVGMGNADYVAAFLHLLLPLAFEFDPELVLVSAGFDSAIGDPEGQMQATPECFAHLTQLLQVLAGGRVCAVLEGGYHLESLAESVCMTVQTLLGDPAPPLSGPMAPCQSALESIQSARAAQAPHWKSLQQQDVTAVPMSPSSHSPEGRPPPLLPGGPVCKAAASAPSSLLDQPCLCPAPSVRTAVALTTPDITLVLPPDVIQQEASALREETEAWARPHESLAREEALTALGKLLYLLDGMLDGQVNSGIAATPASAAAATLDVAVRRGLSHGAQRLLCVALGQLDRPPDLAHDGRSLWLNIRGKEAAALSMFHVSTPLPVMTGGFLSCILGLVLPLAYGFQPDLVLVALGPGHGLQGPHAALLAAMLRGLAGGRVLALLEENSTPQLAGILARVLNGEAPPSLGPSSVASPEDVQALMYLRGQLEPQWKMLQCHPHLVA

[5] = target: T3, Protein deacetylase HDAC6 (Homo sapiens, UniProt Q9UBN7); assay: Inhibition of human HDAC6 using fluorogenic HDAC substrate
T3 sequence (Q9UBN7 whole entry): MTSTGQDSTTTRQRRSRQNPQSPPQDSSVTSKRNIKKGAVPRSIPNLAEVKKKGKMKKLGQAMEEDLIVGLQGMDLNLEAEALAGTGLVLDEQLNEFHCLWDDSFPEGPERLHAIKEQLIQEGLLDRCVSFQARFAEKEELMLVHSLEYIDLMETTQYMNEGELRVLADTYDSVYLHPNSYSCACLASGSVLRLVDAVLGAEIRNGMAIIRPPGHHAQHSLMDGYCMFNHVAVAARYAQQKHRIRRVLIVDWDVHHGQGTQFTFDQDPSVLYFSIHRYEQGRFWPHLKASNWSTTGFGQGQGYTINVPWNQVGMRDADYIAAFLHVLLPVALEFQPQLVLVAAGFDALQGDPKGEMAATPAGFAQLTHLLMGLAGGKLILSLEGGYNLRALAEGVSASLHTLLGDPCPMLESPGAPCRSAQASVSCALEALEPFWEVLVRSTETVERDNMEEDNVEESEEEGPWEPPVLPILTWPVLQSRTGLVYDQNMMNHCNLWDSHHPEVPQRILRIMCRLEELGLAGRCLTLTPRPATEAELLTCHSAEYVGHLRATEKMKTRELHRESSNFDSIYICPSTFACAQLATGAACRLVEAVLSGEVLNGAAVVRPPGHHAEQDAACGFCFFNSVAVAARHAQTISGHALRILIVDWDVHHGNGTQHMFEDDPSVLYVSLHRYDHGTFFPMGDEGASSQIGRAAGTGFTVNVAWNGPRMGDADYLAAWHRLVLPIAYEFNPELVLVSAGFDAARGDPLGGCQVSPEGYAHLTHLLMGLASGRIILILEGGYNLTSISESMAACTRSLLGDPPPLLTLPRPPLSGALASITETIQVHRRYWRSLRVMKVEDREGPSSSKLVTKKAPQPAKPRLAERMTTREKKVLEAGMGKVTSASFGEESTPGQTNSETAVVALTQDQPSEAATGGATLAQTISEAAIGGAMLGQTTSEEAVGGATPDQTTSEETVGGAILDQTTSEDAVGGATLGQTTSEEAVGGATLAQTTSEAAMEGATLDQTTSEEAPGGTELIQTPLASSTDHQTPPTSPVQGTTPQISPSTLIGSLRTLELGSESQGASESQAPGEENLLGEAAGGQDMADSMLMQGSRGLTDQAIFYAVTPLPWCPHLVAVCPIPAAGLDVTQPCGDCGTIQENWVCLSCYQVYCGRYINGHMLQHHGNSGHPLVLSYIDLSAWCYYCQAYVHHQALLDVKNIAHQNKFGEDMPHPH

[6] = target: Histone deacetylase 3 (Homo sapiens, UniProt O15379); assay: Inhibition of human HDAC3 using fluorogenic HDAC substrate
[7] = target: Histone deacetylase 4 (Homo sapiens, UniProt P56524); assay: Inhibition of human HDAC4 using fluorogenic HDAC substrate
[8] = target: T4, Histone deacetylase 8 (Homo sapiens, UniProt Q9BY41); assay: Inhibition of human HDAC8 using fluorogenic HDAC substrate
T4 sequence (Q9BY41 whole entry): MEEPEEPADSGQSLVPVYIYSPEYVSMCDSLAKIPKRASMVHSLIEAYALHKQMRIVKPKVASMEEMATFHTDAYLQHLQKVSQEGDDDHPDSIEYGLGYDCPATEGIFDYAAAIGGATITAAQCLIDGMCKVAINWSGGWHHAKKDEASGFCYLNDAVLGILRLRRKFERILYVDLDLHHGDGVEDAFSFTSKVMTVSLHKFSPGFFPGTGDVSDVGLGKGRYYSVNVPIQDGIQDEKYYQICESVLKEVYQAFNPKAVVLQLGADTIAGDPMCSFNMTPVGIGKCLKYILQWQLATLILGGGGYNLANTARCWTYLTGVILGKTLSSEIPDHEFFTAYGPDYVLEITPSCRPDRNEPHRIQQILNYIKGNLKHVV

[9] = target: T5, Histone deacetylase 1 (Homo sapiens, UniProt Q13547); assay: Inhibition of human HDAC1 using fluorogenic HDAC substrate
[10] = target: T5, Histone deacetylase 1; assay: Inhibition of HDAC1 (unknown origin) using Ac-peptide as substrate preincubated for 15 mins followed by substrate addition and measured after 60 mins by fluorescence assay
[11] = target: T3, Protein deacetylase HDAC6; assay: Inhibition of recombinant full-length human HDAC6 expressed in baculovirus expression system using FAM-RHKK(Ac)-H2 as substrate measured by electrophoretic mobility shift assay
[12] = target: Histone deacetylase 2 (Homo sapiens, UniProt Q92769); assay: Inhibition of human HDAC2 using fluorogenic HDAC substrate
[13] = target: T5, Histone deacetylase 1; assay: Inhibition of GST-tagged HDAC1 (unknown origin) expressed in insect cells using poly (Glu, Tyr) 4:1 as substrate measured after 15 mins in presence of [gamma-33P]ATP by Topcount method

Histone deacetylase 9, sequence (Q9UKV0 whole entry): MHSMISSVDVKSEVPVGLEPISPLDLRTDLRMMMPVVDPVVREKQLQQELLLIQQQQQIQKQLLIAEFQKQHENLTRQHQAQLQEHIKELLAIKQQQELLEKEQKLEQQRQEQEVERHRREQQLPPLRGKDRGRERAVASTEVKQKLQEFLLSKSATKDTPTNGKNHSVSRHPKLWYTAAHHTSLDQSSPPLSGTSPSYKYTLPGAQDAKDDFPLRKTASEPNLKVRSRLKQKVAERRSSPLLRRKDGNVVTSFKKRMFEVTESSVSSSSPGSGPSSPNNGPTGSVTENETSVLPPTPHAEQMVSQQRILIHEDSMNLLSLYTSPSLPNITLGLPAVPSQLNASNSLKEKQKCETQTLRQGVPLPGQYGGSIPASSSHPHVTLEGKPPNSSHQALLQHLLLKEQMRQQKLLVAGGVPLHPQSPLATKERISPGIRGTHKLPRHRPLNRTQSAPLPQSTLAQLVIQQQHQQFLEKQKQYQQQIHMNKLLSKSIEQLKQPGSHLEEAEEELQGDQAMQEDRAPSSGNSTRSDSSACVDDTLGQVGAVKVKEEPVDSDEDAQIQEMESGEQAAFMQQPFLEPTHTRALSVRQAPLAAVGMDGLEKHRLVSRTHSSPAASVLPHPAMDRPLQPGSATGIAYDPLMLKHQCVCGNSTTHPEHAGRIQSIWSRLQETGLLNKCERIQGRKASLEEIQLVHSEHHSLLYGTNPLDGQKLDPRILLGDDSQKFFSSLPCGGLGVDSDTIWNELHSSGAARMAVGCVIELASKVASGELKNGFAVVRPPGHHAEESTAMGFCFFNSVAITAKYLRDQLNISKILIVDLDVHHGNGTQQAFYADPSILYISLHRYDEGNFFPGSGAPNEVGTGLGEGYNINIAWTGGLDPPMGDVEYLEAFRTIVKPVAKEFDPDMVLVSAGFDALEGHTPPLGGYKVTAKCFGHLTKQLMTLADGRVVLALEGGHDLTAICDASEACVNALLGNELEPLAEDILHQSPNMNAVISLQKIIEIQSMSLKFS
Histone deacetylase 3, sequence (O15379 whole entry): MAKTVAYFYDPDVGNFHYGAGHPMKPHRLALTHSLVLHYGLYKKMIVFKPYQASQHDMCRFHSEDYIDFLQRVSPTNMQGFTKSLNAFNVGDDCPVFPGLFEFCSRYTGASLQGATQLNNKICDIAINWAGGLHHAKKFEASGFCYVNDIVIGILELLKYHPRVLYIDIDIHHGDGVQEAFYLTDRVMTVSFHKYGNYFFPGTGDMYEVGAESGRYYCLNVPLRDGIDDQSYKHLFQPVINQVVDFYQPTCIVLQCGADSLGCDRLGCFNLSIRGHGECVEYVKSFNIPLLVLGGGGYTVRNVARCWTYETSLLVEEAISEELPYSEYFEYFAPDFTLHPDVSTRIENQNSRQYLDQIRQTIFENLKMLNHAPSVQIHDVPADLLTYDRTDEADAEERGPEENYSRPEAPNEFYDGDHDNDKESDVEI
Histone deacetylase 4, sequence (P56524 whole entry): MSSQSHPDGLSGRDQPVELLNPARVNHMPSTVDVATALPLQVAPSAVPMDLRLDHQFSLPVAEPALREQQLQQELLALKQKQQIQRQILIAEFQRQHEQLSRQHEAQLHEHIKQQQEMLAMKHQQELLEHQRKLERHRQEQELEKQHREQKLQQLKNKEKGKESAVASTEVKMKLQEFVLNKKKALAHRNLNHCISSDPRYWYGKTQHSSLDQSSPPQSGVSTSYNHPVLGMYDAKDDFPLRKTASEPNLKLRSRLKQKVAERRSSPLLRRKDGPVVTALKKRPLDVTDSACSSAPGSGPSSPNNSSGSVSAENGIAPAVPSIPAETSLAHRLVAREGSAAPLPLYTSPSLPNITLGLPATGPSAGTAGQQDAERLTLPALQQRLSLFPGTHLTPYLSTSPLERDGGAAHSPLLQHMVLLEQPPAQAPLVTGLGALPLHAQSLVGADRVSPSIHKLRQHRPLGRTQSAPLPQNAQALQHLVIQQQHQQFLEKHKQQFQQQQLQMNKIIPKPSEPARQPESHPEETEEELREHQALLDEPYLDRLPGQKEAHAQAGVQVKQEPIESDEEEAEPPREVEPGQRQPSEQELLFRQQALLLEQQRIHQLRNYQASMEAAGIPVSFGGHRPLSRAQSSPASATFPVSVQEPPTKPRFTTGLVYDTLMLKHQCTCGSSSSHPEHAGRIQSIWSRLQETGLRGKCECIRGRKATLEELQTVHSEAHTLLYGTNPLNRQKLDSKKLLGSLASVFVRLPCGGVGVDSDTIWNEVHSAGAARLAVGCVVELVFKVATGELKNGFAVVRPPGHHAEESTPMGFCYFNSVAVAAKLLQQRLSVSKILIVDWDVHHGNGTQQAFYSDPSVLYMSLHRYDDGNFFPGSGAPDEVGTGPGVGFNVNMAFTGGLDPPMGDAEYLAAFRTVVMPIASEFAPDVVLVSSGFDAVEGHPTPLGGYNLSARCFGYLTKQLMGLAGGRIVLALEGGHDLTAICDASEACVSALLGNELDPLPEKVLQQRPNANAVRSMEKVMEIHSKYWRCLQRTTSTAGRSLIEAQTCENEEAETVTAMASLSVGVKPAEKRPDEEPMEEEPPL
Histone deacetylase 2, sequence (Q92769 whole entry): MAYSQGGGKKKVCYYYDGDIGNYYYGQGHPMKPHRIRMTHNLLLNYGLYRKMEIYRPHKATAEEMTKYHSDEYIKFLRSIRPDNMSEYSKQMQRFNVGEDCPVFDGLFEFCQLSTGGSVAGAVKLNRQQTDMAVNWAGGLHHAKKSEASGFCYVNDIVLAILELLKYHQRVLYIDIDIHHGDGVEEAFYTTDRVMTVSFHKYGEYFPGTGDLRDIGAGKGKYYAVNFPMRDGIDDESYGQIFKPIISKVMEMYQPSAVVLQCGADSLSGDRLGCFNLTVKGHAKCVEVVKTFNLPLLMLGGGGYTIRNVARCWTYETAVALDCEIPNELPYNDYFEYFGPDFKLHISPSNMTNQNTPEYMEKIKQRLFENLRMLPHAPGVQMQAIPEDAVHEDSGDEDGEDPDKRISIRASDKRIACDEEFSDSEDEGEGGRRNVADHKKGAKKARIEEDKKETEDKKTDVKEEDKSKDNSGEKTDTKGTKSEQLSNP
T5 sequence (Q13547 whole entry): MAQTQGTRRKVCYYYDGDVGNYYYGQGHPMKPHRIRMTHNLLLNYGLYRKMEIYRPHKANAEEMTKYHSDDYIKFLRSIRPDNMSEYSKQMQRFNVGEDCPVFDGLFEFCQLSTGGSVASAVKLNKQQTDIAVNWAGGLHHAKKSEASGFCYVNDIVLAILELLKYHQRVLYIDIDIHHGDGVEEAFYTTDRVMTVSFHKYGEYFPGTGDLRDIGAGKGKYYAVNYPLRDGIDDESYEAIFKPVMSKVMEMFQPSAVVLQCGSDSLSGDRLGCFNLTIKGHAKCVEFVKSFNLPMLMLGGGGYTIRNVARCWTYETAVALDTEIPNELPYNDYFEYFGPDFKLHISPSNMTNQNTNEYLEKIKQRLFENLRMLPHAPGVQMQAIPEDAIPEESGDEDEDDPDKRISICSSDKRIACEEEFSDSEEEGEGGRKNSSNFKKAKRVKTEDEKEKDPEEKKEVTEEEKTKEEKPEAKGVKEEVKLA
Histone deacetylase 5, sequence (Q9UQL6 whole entry): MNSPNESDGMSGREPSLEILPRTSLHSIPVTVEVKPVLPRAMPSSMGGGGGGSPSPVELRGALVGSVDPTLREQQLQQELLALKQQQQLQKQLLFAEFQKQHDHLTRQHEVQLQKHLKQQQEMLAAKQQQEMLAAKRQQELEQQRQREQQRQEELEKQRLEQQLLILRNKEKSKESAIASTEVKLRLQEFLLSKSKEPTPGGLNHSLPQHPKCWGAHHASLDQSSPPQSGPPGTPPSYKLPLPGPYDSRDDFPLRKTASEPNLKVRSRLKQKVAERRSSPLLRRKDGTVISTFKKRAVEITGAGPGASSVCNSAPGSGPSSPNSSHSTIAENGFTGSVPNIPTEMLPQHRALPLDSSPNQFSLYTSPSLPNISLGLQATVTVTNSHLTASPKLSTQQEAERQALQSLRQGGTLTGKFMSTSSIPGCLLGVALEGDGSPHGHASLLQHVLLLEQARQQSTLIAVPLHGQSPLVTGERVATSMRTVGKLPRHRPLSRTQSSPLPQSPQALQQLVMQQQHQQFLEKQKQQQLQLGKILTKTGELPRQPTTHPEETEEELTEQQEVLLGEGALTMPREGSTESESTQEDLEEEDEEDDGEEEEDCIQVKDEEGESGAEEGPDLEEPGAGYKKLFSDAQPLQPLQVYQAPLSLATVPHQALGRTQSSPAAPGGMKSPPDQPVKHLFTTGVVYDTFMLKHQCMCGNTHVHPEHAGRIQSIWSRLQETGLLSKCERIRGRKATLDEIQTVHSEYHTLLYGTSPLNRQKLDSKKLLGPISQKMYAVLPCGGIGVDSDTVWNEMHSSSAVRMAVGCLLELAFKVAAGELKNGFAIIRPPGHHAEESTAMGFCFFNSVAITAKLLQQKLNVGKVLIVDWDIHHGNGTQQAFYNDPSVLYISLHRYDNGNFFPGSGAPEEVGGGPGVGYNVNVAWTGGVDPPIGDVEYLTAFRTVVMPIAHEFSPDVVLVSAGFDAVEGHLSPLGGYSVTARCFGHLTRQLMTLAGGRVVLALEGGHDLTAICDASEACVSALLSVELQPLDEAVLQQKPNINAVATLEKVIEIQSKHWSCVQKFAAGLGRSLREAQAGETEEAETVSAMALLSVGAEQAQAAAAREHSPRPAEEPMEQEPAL

O=C(NO)c1ccc(CN2c3ccccc3C[C@@H]3CCCCC[C@H]32)cc1
IC50 [1]: 1.2 µM | IC50 [2]: > 30 µM | IC50 [3]: > 30 µM | IC50 [4]: > 30 µM | IC50 [5]: 0.033 µM | IC50 [6]: > 30 µM | IC50 [7]: > 30 µM | IC50 [8]: 6.7 µM | IC50 [9]: > 30 µM

COc1ccccc1N1C(=O)CSC1c1cccc(C(=O)NCCCC(=O)NO)c1 (stereo not drawn)
IC50 [10]: 4.93 µM

O=C(CCCCCCCOc1ccccc1N1C(=O)CSC1c1cccc(Br)c1)NO (stereo not drawn)
IC50 [10]: 0.029 µM

CC(C)N1CCC2(CCc3ccc(C(=O)NO)cc3C2)C1=O (stereo not drawn)
IC50 [11]: > 0.5 µM

O=C(CCCOc1ccccc1N1C(=O)CSC1c1cccc(Br)c1)NO (stereo not drawn)
IC50 [10]: 1.86 µM

O=C(NO)c1ccc(CN2c3ccccc3C3C2CCS3(=O)=O)cc1 (stereo not drawn)
IC50 [1]: 17 µM | IC50 [2]: 0.4 µM | IC50 [3]: 0.2 µM | IC50 [4]: 13 µM | IC50 [12]: > 30 µM | IC50 [5]: 0.0082 µM | IC50 [7]: 0.6 µM | IC50 [8]: 1.9 µM | IC50 [9]: 12 µM

O=C(/C=C/c1ccc(C2CCCN2CCc2c(-c3cccnc3)nn3ccccc23)cc1)NO (stereo not drawn)
IC50 [13]: 0.001 µM

O=C(NO)c1ccc(Cn2c3c(c4cc(F)ccc42)CSCC3)cc1
IC50 [2]: 1.8 µM | IC50 [3]: 0.8 µM | IC50 [4]: 21 µM | IC50 [6]: 23 µM

O=C(NO)c1ccc2c(c1)CC1(CC2)CCN(Cc2ccccc2OC(F)(F)F)C1=O (stereo not drawn)
IC50 [11]: 0.1 to 0.5 µM

O=C(CCCCCC(=O)Nc1ccccc1N1C(=O)CSC1c1cccc(Br)c1)NO (stereo not drawn)
IC50 [10]: 0.029 µM

O=C(NO)c1ccc2c(c1)CC1(CC2)CCN(Cc2ccncc2)C1=O (stereo not drawn)
IC50 [11]: > 0.5 µM

CCc1n[nH]c(CC)c1CCN1CCCC1c1ccc(/C=C/C(=O)NO)cc1 (stereo not drawn)
IC50 [13]: 0.0008 µM

Cc1nn2ccccc2c1CCN1CCCC1c1ccc(/C=C/C(=O)NO)cc1 (stereo not drawn)
IC50 [13]: 0.0006 µM

CC(C)c1[nH]c2ccccc2c1C1CCCN(Cc2ccc(/C=C/C(=O)NO)cc2)C1 (stereo not drawn)
IC50 [13]: 0.006 µM

O=C(CCCOc1ccccc1N1C(=O)CSC1c1ccc(Br)s1)NO (stereo not drawn)
IC50 [10]: 0.073 µM

O=C(CCCCOc1ccccc1N1C(=O)CSC1c1cccc(Br)c1)NO (stereo not drawn)
IC50 [10]: 0.53 µM

O=C(NO)c1ccc(Cn2c3c(c4cc(F)ccc42)C[S+]([O-])CC3)cc1 (stereo not drawn)
IC50 [1]: 0.5 µM | IC50 [2]: 1.3 µM | IC50 [3]: 0.5 µM | IC50 [4]: 6.4 µM | IC50 [12]: > 30 µM | IC50 [5]: 0.0094 µM | IC50 [6]: 24 µM | IC50 [7]: 1.2 µM | IC50 [8]: 2.4 µM | IC50 [9]: 9.4 µM

O=C(NO)c1ccc(CN2c3cc(C(F)(F)F)ccc3CCC[C@@H]3CCCC[C@H]32)cc1
IC50 [1]: 0.82 µM | IC50 [2]: 22 µM | IC50 [3]: > 30 µM | IC50 [4]: 9.4 µM | IC50 [12]: 16 µM | IC50 [5]: 0.011 µM | IC50 [6]: 18 µM | IC50 [8]: 2 µM | IC50 [9]: 8.8 µM

O=C(CCCCCCC(=O)Nc1ccccc1N1C(=O)CSC1c1cccc(Br)c1)NO (stereo not drawn)
IC50 [10]: 0.052 µM

O=C(NO)c1ccc(Cn2c3c(c4cc(F)ccc42)CS(=O)(=O)CC3)cc1
IC50 [2]: 0.5 µM | IC50 [3]: 0.5 µM | IC50 [4]: 5.9 µM | IC50 [12]: 29 µM | IC50 [6]: 26 µM | IC50 [8]: 0.9 µM

Cc1[nH]c2ccccc2c1C1CCCN(Cc2ccc(/C=C/C(=O)NO)cc2)C1 (stereo not drawn)
IC50 [13]: 0.006 µM

COc1ccccc1N1C(=O)CSC1c1cccc(NC(=O)CCCCCC(=O)NO)c1 (stereo not drawn)
IC50 [10]: 0.017 µM

O=C(NO)c1ccc(Cn2c3c(c4ccccc42)CS(=O)(=O)CC3)cc1
IC50 [2]: 0.5 µM | IC50 [3]: 0.3 µM | IC50 [4]: 7.7 µM | IC50 [12]: 26 µM | IC50 [6]: 29 µM

O=C(/C=C/c1ccc(C2CCCN2CCc2cnn3ccccc23)cc1)NO (stereo not drawn)
IC50 [13]: 0.0009 µM

O=C(CCCCCCOc1ccccc1N1C(=O)CSC1c1cccc(Br)c1)NO (stereo not drawn)
IC50 [10]: 0.05 µM

COc1ccccc1N1C(=O)CSC1c1cccc(NC(=O)CCC(=O)NO)c1 (stereo not drawn)
IC50 [10]: 0.35 µM

COc1ccccc1N1C(=O)CSC1c1cccc(C(=O)NCCCCCC(=O)NO)c1 (stereo not drawn)
IC50 [10]: 0.037 µM

O=C(CCCCCOc1ccccc1N1C(=O)CSC1c1cccc(Br)c1)NO (stereo not drawn)
IC50 [10]: 0.26 µM

O=C(NO)c1ccc(CN2c3ccccc3CCC[C@@H]3CCCC[C@H]32)cc1
IC50 [1]: 2.4 µM | IC50 [2]: 9.1 µM | IC50 [3]: 13 µM | IC50 [4]: 10 µM | IC50 [12]: 24 µM | IC50 [5]: 0.008 µM | IC50 [6]: 24 µM | IC50 [7]: > 30 µM | IC50 [8]: 1.1 µM | IC50 [9]: 8.1 µM
